Experimental data from patent publication US20250338846A1, “COMPOSITIONS HAVING PESTICIDAL UTILITY AND PROCESSES RELATED THERETO” (CORTEVA AGRISCIENCE, LLC, priority 2022, published 2025).

Assays:
Assay type in all cases: in vivo
[1] = system: Diamondback Moth (Plutella xylostella, PLUTMA); assay: Bioassay 9: Diamondback Moth, leaves of track-sprayed cabbage plants, mortality and feeding damage scored
Protocol: where X=No. of live nymphs on solvent check plants and Y=No. of live nymphs on treated plants. In Table B2 the “Expected % Control” was calculated using the method described in Colby S. R., Weeds, 1967, 15, 20-22. Bioassay 9: Diamondback Moth (Plutella xylostella, PLUTMA) (DBM).
Stock solutions were prepared with Formula One as well as for each of the active ingredients individually. Test solutions were prepared from the stock solutions. Test solutions were prepared containing Formula One, the individual active ingredients, and mixtures of Formula One with each of the active ingredients. The test solution for Formula One was prepared by adding 500 μL of the stock solution to a 25 mL glass vial, then adding 500 μL of a 9:1 mixture of acetone: water. The individual active ingredients were prepared by adding 500 μL of stock solution to a 25 mL glass vial, then adding 500 μL of a 9:1 mixture of acetone: water. The test solutions containing mixtures of Formula One and the individual active ingredients were prepared by adding 500 μL of the active ingredient stock solution to a 25 mL glass vial, followed by 500 μL of the Formula One stock solution, creating a test solution containing 4000 ppm Formula One and 0.4% (w/v) of the active ingredient. Each test solution was serially diluted to create desired doses of test solutions (0.4% (w/v), 0.04% (w/v), 0.004% (w/v), 0.0004% (w/v), 0.00004% (w/v), and 0.000004% (w/v)). In test solutions containing mixtures of Formula One and the active ingredients, the active ingredients were diluted as described above, but the Concentration of Formula One was held constant (0.4% (w/v)). The highest dose test solution (0.4% (w/v)) was discarded, leaving 5 test solution concentrations used in the test.
Cabbage seedlings, grown in 3-inch pots with 2-3 small (3-5 centimeter (cm)) true leaves, were used as test substrate. Cabbage plants were sprayed with desired concentrations of Formula One and active ingredients or their mixtures using a track Sprayer. Reference plants (solvent check) were sprayed with diluent only (0.025% Tween® 20 and 10% acetone:methanol (1:1) in water). The sprayed cabbage plants were allowed to dry for 1 hour, after which leaves from each treatment were placed in a cell of a plastic tray. One leaf per cell and 8 replicates for each cell. The tested doses ranged between 0.000001% (w/v) to 0.0002% (w/v). One 2nd instar DBM larvae were placed in each cell of the tray and allowed to feed on the cabbage foliage for […] after which the mortality and feeding damage were scored. Test trays were held at approximately 26° C. and ambient relative humidity (RH) prior to grading. The number of live larvae were recorded from each cell and percent control was measured using Abbott's correction formula (W. S. Abbott, J. Econ. Entomol. 18 (1925), pp. 265-267) as follows:
where X=No. of live larvae on solvent check and Y=No. of live larvae on treated diet. In Table B6 the “Expected % Control” was calculated using the method described in Colby S. R., Weeds, 1967, 15, 20-22.

[2] = system: Cotton Aphid (Aphis gossypii, APHIGO); assay: Bioassay 7: Cotton Aphid, foliar spray on infested cotton seedlings, live aphids counted three days after treatment; settings: AI alone 5 (10^-5) Wt %
Protocol: where X=No. of live larvae on solvent check and Y=No. of live larvae on treated diet. In Table B6 the “Expected % Control” was calculated using the method described in Colby S. R., Weeds, 1967, 15, 20-22. Bioassay 7: Cotton Aphid (Aphis gossypii, APHIGO) (“CA”).
Stock solutions of Formula One and one or more of the active ingredients were prepared at concentrations of 1 mg/mL using a 1:1 mixture of acetone: methanol as a diluent. The stock solutions were prepared with Formula One as well as for each of the active ingredients individually. Test solutions were prepared from the stock solutions. Test solutions were prepared containing Formula One, the individual active ingredients, and mixtures of Formula One with each of the active ingredients. The test solutions for Formula One and the individual active ingredients were prepared by adding 1.5 mL of stock solution to a 30 mL glass vial, then adding 1.5 mL of 1:1 acetone: methanol solvent, followed by the addition of 27 mL water with 0.025% Tween® 20 to create a […]. Each test solution was serially diluted to create desired doses of test solutions ranging from 0.000001 to 0.0025% (w/v). The test solutions were tested against CA using the following procedure: cotton seedlings were grown in 3-inch pots with one true leaf (2-5 cm in diameter) were used as test substrate. The seedlings were infested with 20-50 CA (wingless adult and nymph stages) one day prior to chemical application. Four pots with individual seedlings were used for each treatment. A hand-held aspirator-type sprayer was used for spraying a solution to both sides of […] leaves until runoff. Reference plants (solvent check) were sprayed with the diluent only (0.025% Tween® 20 and 10% acetone:methanol (1:1) in water). Treated plants were held in a holding room for three days at approximately 25° C. and ambient relative humidity (RH about 20% to about 45%) prior to grading. Evaluation was conducted by counting the number of live aphids per plant under a microscope three days after treatment. Percent control was measured using Abbott's correction formula (W. S. Abbott, J. Econ. Entomol. 18 (1925), pp. 265-267) as follows:
where X=No. of live aphids on solvent check plants and Y=No. of live aphids on treated plants. In Table B1 the “Expected % Control” was calculated using the method described in Colby S. R., Weeds, 1967, 15, 20-22. Bioassay 8: Sweet Potato Whitefly (Bemisia tabaci, BEMITA) (“SPW”).

[3] = system: Western Flower Thrips (Frankliniella occidentalis, FRANOC); assay: Bioassay 3: Western Flower Thrips, cotton leaf disc dip, live WFT counted 3 days after treatment; settings: AI alone 0.0003125 % w/v
Protocol: (§1) Stock solutions of Formula One and various active ingredients were prepared initially at a concentration of 8 mg/ml for Formula One and 1 mg/mL for the active ingredients, respectively, using acetone as a diluent. Stock solutions were prepared with Formula One as well as for each of the active ingredients individually. Test solutions were prepared from the stock solutions. Test solutions were prepared containing Formula One, the individual active ingredients, and mixtures of Formula One with each of the active ingredients. The test solution for Formula One was prepared by adding 500 μL of the stock solution to a 25 mL glass vial, then adding 500 μL of acetone, followed by the addition of 9 mL water with 0.025% Tween®) 20 to create a 0.04% (w/v) solution. The test solutions of the individual active ingredients were prepared by adding 500 μL of stock solution to a 25 mL glass vial, then adding 500 μL of acetone, followed by the addition of 9 mL water with 0.025% Tween®) 20 to create a 0.005% (w/v) solution. The test solutions containing mixtures of Formula One and the individual active ingredients were prepared by adding 500 μL of the active ingredient stock solution to a 25 mL glass vial, followed by 500 μL of the Formula One stock solution, then by the addition of 9 mL water with 0.025% Tween®) 20 to create a test solution containing 0.04% (w/v) Formula One and 0.005% (w/v) of the active ingredient. Each test solution was serially diluted to create desired doses of test solutions (0.005% (w/v), 0.00125% (w/v), 0.0003125% (w/v), 0.000078% (w/v), and 0.0000195% (w/v)). In test solutions containing mixtures of Formula One and the active ingredients, the active ingredients were diluted as described above, but the Concentration of Formula One was held constant (0.04% (w/v)).
The test solutions were tested against WFT using the following procedure: Leaf discs (2.7 cm in diameter) were cut from the true leaves of cotton plants. Leaf discs were dipped into the test solutions and shaken to ensure complete coverage of the leaf disc and then placed in Millipore®) PetriSlides containing a filter paper disc. Treated leaf discs were air dried for approximately 1 hour. Each leaf disc was infested with 5 WFT (9-10-day old nymphs) by placement on each leaf disc, and the PetriSlides were capped to prevent escape. Each treatment was replicated three times and the test treatments were held at approximately 26° C. and ambient relative humidity (RH) prior to grading. Reference discs (solvent check) were treated with the diluent only. Evaluation was conducted by counting the number of live WFT under magnification 3 days after treatment. Percent control was measured using Abbott's correction formula (W. S. Abbott, J. Econ. Entomol. 18 (1925), pp. 265-267) as follows:
(§2) where X=No. of live nymphs on solvent check leaf discs and Y=No. of live nymphs on treated leaf discs. In Table B3 the “Expected % Control” was calculated using the method described in Colby S. R., Weeds, 1967, 15, 20-22. Bioassay 4: Western Tarnished Plant Bug (Lygus hesperus, LYGUHE) (“WTPB”).

[4] = system: Western Tarnished Plant Bug (Lygus hesperus, LYGUHE); assay: Bioassay 4: Western Tarnished Plant Bug, soaked green bean segments, living nymphs 3 days after application; settings: AI alone 0.005 % w/v
Protocol: as §2
as §1, with “Stock” for “Stock solutions of Formula One and various active ingredients were prepared initially at a concentration of 8 mg/ml for Formula One and 1 mg/mL for the active ingredients, respectively, using acetone as a diluent. Stock”
The test solutions were tested against WTPB using the following procedure: Fresh green beans were cut into segments approximately 1.5 inches long. Four bean segments were added to each 25 mL vial containing the test solutions and soaked for approximately 15 minutes. After soaking, a single bean fragment was removed and placed into a single well of a 32-well rearing tray (Frontier Agricultural Sciences™), on top of a round filter paper disc. A reference treatment (solvent check) was treated with the diluent only. Each treatment was replicated four times and the test treatments were held at approximately 26° C. and ambient relative humidity (RH) prior to grading. Bean segments were allowed to air dry for ˜30 minutes. Three WTPB nymphs were added to and contained in each well with a clear perforated adhesive lid. The total number of living WTPB nymphs was recorded 3 days after application. Scoring was based off the total number of living nymphs out of all four replicates. Percent control was measured using Abbott's correction formula (W. S. Abbott, J. Econ. Entomol. 18 (1925), pp. 265-267) as follows:
X=No. of live nymphs on solvent check and Y=No. of live nymphs on treated bean segments. In Table B4 the “Expected % Control” was calculated using the method described in Colby S. R., Weeds, 1967, 15, 20-22. Bioassay 5: Neotropical Brown Stink Bug (Euschistus heros, EUSCHE) (“BSB”).

Structure (SMILES) | Average % Control AI ([1]; AI alone 5 (10^-5) Wt %) | Average % Control AI ([1]; AI alone 10 (10^-5) Wt %) | Average % Control AI ([1]; AI alone 20 (10^-5) Wt %) | Average % Control A1 [2] | Average % Control AI [3] | Average % Control AI [4]
CC1(C)C(C=C(Cl)Cl)C1C(=O)OC(C#N)c1ccc(F)c(Oc2ccccc2)c1 (stereo not drawn) [Beta-Cyfluthrin] | 13.64% | 27.27% | 72.73% | 21.34% | – | –
O=c1c(-c2cccc(C(F)(F)F)c2)c([O-])[n+](Cc2cncnc2)c2ccccn12 [Triflumezopyrim] | – | – | – | – | 7% | 9%
